Patent US20180057588A1, “Antibodies Towards an Extracellular Region of NBCn1” (Aarhus Universitet, priority 2015, published 2018)

Key:
[1] = biological target: T1, NHE1-mediated Na+/H+-exchange in MCF-7 human breast cancer cells (Homo sapiens, UniProt P19634); details: Lauritzen et al., 2010; cited from earlier work
T1 construct: net acid extrusion from MCF-7 cells occurs through a combination of NBCn1-mediated Na^+,HCO3^−-cotransport and NHE1-mediated Na^+/H^+-exchange; endogenous in cells; host or cells: MCF-7 human breast cancer cells (Lauritzen et al., 2010)
T1 sequence (P19634 whole entry): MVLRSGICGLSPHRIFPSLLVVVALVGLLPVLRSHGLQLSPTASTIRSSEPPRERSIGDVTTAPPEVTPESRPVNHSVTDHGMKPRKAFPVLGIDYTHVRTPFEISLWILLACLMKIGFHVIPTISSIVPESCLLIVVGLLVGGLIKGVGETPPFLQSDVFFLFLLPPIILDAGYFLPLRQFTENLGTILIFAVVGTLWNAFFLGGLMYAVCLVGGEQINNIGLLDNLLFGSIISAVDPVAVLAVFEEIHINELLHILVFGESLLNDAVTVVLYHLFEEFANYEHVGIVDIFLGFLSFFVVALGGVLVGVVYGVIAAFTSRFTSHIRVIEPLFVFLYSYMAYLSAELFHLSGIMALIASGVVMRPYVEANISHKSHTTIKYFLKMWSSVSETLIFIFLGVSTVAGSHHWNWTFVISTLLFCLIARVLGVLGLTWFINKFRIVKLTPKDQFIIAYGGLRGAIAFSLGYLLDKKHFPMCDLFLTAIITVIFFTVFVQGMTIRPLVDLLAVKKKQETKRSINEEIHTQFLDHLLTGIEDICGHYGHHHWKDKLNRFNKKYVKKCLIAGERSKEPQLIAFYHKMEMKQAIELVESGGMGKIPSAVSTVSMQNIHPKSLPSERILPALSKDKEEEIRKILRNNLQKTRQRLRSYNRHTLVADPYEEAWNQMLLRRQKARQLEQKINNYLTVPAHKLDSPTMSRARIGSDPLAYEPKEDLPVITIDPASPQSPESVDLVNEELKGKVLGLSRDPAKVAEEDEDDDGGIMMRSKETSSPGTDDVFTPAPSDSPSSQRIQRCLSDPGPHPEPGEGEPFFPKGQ

[2] = tested on: VSMC migration in primary aortic explants; assay: Scratch-wound healing in primary aortic explants; format: cell-based, mouse
Description: (§1) Rates of wound healing in primary explants were calculated from time-lapse images captured at 5-minute intervals after scratch infliction. Experiments were performed in Minimum Essential Medium with 10% fetal calf serum or—to avoid binding of the non-selective Na^+,HCO3^−-cotransport inhibitor S0859 to medium or serum components—in physiological saline solutions (PSS). Cell size was estimated based on cell density in confluent areas. Total filopodia length was determined relative to the length of the migrating front (i.e., twice the scratch length). Cell proliferation was evaluated (a) by counting the relative number of cells dividing during six hours time-lapse imaging and (b) as the proportion of cells positive for the thymidine analogue bromodeoxyuridine (BrdU) after six hours incubation.
(§2) The PSS was composed of (in mM) 134 Na^+, 4 K^+, 1.6 Ca^2+, 1.2 Mg^2+, 111 Cl^−, 24 HCO3^−, 1.2 SO4^2−, 1.18 H2PO4^−, 10 HEPES, 5.5 glucose, 0.03 EDTA. In Na^+-free solutions, Na^+ was substituted with an equimolar amount of N-methyl-D-glucammonium (NMDG^+), except for NaHCO3, which was replaced with choline-HCO3. In HCO3^−-free solutions, HCO3^− was replaced with an equimolar amount of Cl^−. HCO3^−-containing solutions were aerated with a gas mixture of 5% CO2/balance air, whereas HCO3^−-free solutions were gassed with air (i.e., 21% O2/balance N2). All solutions were titrated to pH 7.4 at 37° C.

[3] = tested on: axial pHi gradient in migrating VSMCs of primary aortic explants; assay: Subcellular pHi by confocal microscopy (carboxy SNARF-1) in migrating VSMCs; format: cell-based, mouse
Description: (§3) Using wide-field fluorescence microscopy, global pHi was recorded in arteries and primary explants loaded with the pH-sensitive fluorophore BCECF. Recordings of pHi in subcellular domains were performed by confocal fluorescence microscopy of cells loaded with the pH-sensitive fluorophore carboxy SNARF-1. Intracellular buffering capacities were calculated from changes in pHi upon washout of NH4Cl. No difference in total intracellular buffering capacity (β) was seen between primary explants from NBCn1 KO and WT mice (βWT=15±2 mM, βKO=17±2 mM, n=8; P=0.45, unpaired two-tailed Student's t-test) evaluated at pHi 6.65-6.80.
Previous studies from non-vascular cell types propose that increased acid extrusion at the leading edge of migrating cells creates an axial pHi gradient, which can facilitate actin polymerization, filopodia formation, and cell migration. To investigate pH gradients within cells, we measured pHi -differences between the tip of filopodia and the general (perinuclear) cytosol two hours after scratch infliction. […] With the intention of investigating local pHi dynamics in the region of the filopodia, we incubated primary explants in absence of CO2/HCO3^− for two hours after wound infliction to allow for filopodia formation. We then investigated pHi after an additional 15 minutes with or without CO2/HCO3^− or in the presence of pharmacological inhibitors (FIG. 13E,F). […]

[4] = earlier work; cited from earlier work
primary aortic explants = assay: Cell integrity, morphology and viability during 18 hours of time-lapse imaging; format: cell-based, mouse
Description: as §1, §2

[5] = tested on: VSMCs of primary aortic explants; assay: VSMC proliferation by time-lapse counting of mitoses; format: cell-based, mouse; details: 5 μM, PSS, six hours time-lapse
Description: as §1

[6] = biological target: T2, NBCn1-mediated Na+,HCO3−-cotransport in MCF-7 human breast cancer cells (Homo sapiens, UniProt Q9Y6M7); details: earlier work; cited from earlier work
T2 construct: net acid extrusion from MCF-7 cells occurs through a combination of NBCn1-mediated Na^+,HCO3^−-cotransport and NHE1-mediated Na^+/H^+-exchange; endogenous in cells; host or cells: MCF-7 human breast cancer cells (Lauritzen et al., 2010)
T2 sequence (Q9Y6M7 1-1214): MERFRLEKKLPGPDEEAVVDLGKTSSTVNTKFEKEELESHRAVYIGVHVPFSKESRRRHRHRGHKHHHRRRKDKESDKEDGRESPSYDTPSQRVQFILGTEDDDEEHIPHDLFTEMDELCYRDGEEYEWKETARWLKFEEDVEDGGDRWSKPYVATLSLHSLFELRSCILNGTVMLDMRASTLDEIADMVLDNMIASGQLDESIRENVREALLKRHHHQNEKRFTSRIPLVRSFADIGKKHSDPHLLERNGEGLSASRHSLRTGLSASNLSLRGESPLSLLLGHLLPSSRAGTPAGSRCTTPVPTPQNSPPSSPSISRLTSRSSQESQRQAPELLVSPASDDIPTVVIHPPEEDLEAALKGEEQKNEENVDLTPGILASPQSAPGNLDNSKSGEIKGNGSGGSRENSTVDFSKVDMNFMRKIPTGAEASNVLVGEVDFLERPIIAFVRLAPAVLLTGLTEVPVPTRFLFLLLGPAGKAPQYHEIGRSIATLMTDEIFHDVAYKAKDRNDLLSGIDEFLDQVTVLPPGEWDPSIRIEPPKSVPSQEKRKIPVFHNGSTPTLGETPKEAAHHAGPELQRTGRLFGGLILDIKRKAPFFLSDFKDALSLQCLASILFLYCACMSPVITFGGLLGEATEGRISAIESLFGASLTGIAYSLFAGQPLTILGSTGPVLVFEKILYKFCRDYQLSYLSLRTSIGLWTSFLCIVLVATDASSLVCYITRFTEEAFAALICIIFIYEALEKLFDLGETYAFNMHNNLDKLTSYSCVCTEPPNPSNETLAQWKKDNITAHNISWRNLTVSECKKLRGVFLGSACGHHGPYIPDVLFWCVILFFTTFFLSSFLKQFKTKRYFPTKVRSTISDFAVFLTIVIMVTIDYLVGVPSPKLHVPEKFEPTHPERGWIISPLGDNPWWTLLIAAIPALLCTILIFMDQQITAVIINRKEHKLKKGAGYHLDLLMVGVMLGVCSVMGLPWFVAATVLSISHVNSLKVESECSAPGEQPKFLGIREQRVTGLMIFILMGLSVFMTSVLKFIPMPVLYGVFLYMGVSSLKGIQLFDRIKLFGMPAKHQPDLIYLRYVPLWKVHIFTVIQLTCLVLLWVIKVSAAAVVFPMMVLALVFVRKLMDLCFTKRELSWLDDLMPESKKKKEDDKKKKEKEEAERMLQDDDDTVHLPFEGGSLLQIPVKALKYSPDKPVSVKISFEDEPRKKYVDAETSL

[7] = tested on: migrating VSMCs of primary aortic explants; assay: Filopodia length at the migrating front after scratch infliction; format: cell-based, mouse; details: for presence of filopodia: 5 μM
Description: as §1

[8] = tested on: Na+,HCO3−-cotransport in isolated arteries; details: previously shown; cited from earlier work
[9] = tested on: Na+,HCO3−-cotransport in breast cancer slices or freshly isolated breast cancer organoids; details: earlier work; cited from earlier work
[10] = tested on: Na+,HCO3−-cotransport in primary aortic explants; assay: Global pHi recovery and steady-state pHi in primary aortic explants (BCECF); format: cell-based, mouse
Description: Primary explants were produced from thoracic aortas and common carotid arteries of NBCn1 KO and wild-type (WT) mice. To best maintain the cell morphology and phenotype of native VSMCs, cultured cells were never passaged but investigated directly in primary explants.
as §3
as §2, with “HCO3^−-containing solutions were aerated with a gas mixture of 5% CO2/balance air, whereas HCO3^−-free solutions were gassed with air (i.e., 21% O2/balance N2). All solutions were titrated to pH 7.4 at 37° C.” left out

Structure (SMILES): CCN(c1nc(N)c(C(=O)N=C(N)N)nc1Cl)C(C)C [5-(N-Ethyl-N-isopropyl)amiloride]
- remaining net acid extrusion after inhibition of Na+,HCO3−-cotransport in MCF-7 cells [1]: inhibited

Structure (SMILES): Cc1ccc(CN(Cc2ccc(-c3ccccc3S(=O)(=O)NC#N)cc2)C(=O)c2ccccc2Cl)cc1 [S0859]
- wound healing ([2]; 5 μM, PSS, presence of CO2/HCO3-): inhibited
- pHi of migrating VSMCs, in particular at the tip of filopodia ([3]; 5 μM, 15 minutes exposure, PSS): strongly acidified
- protein binding [4]: unusually strong protein binding
- cell integrity and morphology (primary aortic explants; 5 μM, 18 hours, PSS with CO2/HCO3-): well-maintained
- cell morphology (primary aortic explants; 30 μM, 18 hours, PSS with CO2/HCO3-): severe morphological changes
- cell viability (primary aortic explants; primary explants, CO2/HCO3−-containing PSS, FIG. 16): causes loss of cell viability
- relative number of mitoses [5]: no effect
- Na+,HCO3−-cotransport in cultures of MCF7 breast cancer cells [6]: inhibits
- presence of filopodia ([7]; CO2/HCO3−-free conditions): unaffected
- presence of filopodia ([7]; explants from WT mice, CO2/HCO3−-containing PSS): reduced
- cellular net acid extrusion in isolated arteries [8]: does not affect
- effect in breast cancer slices or freshly isolated breast cancer organoids [9]: has no effect
- Na+,HCO3−-cotransport activity ([10]; primary aortic explants from WT mice, CO2/HCO3- present, 5 and 30 μM): concentration-dependently attenuates
- steady-state pHi ([10]; primary aortic explants, five minutes after addition of S0859): concentration-dependently attenuates

Structure (SMILES): C[C@@H](N)[C@H]1CC[C@H](C(=O)Nc2ccncc2)CC1 [Y-27632]
- wound healing ([2]; 10 μM, primary aortic explants from NBCn1 KO and WT mice): stimulated

Structure (SMILES): CC(=O)Nc1nnc(S(N)(=O)=O)s1 [acetazolamide]
- initial rate of wound healing ([2]; 100 μM, aortic explants from NBCn1 KO mice, CO2/HCO3−-containing medium with serum): increased
- axial pHi gradients ([3]; 100 μM, explants from NBCn1 KO mice, presence of CO2/HCO3-): reestablishes
- abundance of filopodia ([7]; 100 μM, aortic explants from NBCn1 KO mice, presence of CO2/HCO3-): increased abundance
